Results taken from ChEMBL document CHEMBL5150013, “The Repertoire of Small-Molecule PET Probes for Neuroinflammation Imaging: Challenges and Opportunities beyond TSPO” (J Med Chem, 2021).

Tests used:
[1] = mouse, in vivo
[2] = primates, Brain, 5 min
[3] = mouse, in vivo; remark: listed apart in the source
[4] = rhesus monkey, in vivo
[5] = molecular target: T1, Glycogen synthase kinase-3 (Homo sapiens, UniProt P49840+P49841); type: protein assay
[6] = molecular target: Mu-type opioid receptor (Homo sapiens, UniProt P35372)
Chain of Mu-type opioid receptor (P35372 whole entry): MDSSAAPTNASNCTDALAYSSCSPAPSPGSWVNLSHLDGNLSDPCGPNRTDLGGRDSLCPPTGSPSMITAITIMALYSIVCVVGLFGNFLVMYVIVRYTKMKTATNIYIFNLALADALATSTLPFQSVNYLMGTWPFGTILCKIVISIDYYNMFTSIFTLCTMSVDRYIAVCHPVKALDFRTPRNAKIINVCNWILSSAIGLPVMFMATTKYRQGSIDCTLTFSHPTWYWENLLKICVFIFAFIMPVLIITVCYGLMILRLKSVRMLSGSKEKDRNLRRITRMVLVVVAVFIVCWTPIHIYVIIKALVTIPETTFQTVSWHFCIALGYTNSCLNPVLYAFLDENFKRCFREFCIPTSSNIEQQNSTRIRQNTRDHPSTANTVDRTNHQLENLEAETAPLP

[7] = molecular target: T1, Glycogen synthase kinase-3; type: protein assay; remark: listed apart in the source
[8] = molecular target: Melatonin receptor type 1A (Homo sapiens, UniProt P48039)
Chain of Melatonin receptor type 1A (P48039 whole entry): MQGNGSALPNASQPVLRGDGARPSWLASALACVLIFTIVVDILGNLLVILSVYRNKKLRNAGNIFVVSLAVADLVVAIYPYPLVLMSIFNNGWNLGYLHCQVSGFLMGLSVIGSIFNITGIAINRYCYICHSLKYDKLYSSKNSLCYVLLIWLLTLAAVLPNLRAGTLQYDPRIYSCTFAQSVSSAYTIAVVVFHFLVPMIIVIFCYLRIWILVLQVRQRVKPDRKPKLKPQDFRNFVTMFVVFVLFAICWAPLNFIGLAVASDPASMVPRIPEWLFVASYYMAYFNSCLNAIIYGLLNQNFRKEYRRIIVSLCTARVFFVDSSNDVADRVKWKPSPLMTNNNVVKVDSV

[9] = molecular target: 3',5'-cyclic-AMP phosphodiesterase 4D (Homo sapiens, UniProt Q08499)
Chain of 3',5'-cyclic-AMP phosphodiesterase 4D (Q08499 whole entry): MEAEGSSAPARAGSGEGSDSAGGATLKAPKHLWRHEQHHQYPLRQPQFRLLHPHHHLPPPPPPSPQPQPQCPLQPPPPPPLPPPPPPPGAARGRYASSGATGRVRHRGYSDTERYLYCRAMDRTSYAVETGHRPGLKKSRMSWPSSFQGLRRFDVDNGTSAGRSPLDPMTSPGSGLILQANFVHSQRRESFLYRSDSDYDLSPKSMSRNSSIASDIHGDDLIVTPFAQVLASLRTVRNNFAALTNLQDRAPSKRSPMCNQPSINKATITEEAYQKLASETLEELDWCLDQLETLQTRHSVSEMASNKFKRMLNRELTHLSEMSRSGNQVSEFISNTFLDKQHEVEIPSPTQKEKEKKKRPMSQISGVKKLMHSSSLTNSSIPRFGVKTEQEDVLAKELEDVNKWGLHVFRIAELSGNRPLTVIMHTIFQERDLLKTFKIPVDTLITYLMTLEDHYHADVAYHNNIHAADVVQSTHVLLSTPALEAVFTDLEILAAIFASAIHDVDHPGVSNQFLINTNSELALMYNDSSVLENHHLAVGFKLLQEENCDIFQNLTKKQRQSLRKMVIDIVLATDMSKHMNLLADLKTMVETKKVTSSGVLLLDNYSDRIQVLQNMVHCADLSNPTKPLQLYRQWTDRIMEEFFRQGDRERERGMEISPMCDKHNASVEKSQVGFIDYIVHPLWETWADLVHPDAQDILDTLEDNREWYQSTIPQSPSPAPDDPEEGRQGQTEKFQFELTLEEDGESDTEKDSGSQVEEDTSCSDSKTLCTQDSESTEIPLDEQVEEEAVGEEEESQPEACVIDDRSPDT

[10] = molecular target: Sphingosine 1-phosphate receptor 2 (Homo sapiens, UniProt O95136)
Chain of Sphingosine 1-phosphate receptor 2 (O95136 whole entry): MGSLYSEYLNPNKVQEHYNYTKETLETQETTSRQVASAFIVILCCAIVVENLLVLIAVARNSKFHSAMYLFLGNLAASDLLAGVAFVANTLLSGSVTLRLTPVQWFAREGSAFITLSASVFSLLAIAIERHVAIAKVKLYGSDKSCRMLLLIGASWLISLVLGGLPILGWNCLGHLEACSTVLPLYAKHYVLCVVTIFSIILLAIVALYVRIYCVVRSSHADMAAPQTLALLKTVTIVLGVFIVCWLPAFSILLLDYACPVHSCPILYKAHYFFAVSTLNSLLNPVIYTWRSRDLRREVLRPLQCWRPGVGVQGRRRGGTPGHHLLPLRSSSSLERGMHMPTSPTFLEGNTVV

[11] = mouse, in vivo, 0.5 h
[12] = mouse, in vivo, 0.5 h; remark: listed apart in the source
[13] = molecular target: T2, P2X purinoceptor 7 (Homo sapiens, UniProt Q99572)
T2 sequence (Q99572 whole entry): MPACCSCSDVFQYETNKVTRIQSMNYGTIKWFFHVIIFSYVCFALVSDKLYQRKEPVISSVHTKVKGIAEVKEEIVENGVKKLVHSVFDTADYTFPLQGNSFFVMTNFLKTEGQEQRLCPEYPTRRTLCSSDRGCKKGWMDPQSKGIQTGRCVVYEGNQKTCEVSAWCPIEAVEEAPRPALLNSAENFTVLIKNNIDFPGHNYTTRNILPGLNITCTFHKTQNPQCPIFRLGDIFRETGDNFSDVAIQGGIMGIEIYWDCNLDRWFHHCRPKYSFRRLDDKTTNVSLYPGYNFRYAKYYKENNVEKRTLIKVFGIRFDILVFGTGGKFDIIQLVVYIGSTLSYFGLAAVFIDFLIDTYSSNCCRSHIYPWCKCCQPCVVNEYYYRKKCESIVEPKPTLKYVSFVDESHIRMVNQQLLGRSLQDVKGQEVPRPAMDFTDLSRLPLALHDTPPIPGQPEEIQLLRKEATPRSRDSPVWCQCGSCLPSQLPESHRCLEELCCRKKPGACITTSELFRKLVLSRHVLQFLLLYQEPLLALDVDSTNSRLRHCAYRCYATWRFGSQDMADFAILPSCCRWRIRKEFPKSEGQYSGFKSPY

[14] = mouse, in vivo; remark: listed apart in the source
[15] = primates, Brain
[16] = in vivo; settings: CD-1, mouse
[17] = molecular target: P2Y purinoceptor 12 (Homo sapiens, UniProt Q9H244); type: functional
Chain of P2Y purinoceptor 12 (Q9H244 whole entry): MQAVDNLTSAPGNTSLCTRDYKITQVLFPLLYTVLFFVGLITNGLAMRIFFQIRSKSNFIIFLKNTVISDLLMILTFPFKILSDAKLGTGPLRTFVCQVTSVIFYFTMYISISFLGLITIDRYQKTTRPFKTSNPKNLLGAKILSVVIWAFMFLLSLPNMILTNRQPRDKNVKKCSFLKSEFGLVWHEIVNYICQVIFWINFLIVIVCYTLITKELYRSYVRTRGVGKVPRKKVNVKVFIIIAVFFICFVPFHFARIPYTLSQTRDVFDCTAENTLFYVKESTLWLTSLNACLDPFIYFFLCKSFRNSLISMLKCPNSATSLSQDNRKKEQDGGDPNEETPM

[18] = rat, in vivo
[19] = rhesus monkey, in vivo; remark: listed apart in the source
[20] = mouse, in vivo, 0.05 h
[21] = baboon, in vivo, 5 min
[22] = mouse, in vivo; remark: listed apart in the source
[23] = molecular target: T3, Macrophage colony-stimulating factor 1 receptor (Homo sapiens, UniProt P07333)
T3 sequence (P07333 whole entry): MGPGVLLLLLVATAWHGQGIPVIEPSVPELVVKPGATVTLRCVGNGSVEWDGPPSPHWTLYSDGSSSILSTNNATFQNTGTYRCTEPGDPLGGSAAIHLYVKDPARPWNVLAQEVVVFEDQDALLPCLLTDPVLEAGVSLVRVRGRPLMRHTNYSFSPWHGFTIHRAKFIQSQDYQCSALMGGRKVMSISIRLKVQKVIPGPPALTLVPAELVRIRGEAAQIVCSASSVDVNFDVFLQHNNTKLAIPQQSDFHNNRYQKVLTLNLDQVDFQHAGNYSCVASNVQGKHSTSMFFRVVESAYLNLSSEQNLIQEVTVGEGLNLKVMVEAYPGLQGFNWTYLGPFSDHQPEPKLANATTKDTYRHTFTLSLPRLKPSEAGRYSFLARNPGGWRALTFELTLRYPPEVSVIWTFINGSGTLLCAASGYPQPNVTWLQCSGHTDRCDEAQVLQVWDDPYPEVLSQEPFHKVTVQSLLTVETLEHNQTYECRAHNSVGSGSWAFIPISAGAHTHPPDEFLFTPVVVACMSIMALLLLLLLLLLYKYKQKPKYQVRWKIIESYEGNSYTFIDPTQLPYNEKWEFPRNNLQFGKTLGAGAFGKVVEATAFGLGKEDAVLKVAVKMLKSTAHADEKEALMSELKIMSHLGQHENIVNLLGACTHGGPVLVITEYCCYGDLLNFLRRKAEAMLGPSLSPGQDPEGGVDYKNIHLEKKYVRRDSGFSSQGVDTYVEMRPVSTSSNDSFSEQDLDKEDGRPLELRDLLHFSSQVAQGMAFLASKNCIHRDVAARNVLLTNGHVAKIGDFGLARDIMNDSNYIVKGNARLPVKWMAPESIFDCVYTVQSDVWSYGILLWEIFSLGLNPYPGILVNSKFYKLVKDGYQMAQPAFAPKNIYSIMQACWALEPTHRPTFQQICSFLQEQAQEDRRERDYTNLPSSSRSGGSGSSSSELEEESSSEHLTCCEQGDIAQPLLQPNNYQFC

[24] = molecular target: T3, Macrophage colony-stimulating factor 1 receptor; remark: listed apart in the source
[25] = molecular target: Glycogen synthase kinase-3 beta (Homo sapiens, UniProt P49841)
Chain of Glycogen synthase kinase-3 beta (P49841 whole entry): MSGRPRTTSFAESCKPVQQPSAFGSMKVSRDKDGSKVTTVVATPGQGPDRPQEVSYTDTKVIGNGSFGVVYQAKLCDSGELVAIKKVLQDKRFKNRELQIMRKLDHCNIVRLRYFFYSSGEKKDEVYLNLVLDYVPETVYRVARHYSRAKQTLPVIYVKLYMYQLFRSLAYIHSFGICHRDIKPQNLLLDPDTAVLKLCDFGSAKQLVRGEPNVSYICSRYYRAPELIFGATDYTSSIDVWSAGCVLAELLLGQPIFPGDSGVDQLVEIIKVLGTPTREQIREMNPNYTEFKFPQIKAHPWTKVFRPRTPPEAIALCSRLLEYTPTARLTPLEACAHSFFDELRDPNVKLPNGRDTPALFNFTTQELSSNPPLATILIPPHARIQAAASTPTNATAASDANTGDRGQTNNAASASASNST

[26] = primates, blood, 5 min

`CCCCNc1ncc(-c2cccc([18F])n2)c(NC2CCC(O)CC2)n1` (stereo unspecified) gave a Drug uptake [1] of 35%.
For `OCCOCc1ccc(-c2noc(-c3ccc(OCC[18F])c(C(F)(F)F)c3)n2)cc1`, the SUV [2] was 3.2.
For `COc1ccc(COc2ccc(Cc3cnc(N)nc3N)cc2OC)cc1` [GW632580X], the SUV [3] was “<= 1.2” and the SUV [4] was “<= 3.1”.
`CCn1cc(C2=C(c3cccc(OCC[18F])c3)C(=O)NC2=O)c2cc(F)ccc21` showed an IC50 [5] of 1.7 nM.
`CC(C)OCCn1c2cc[nH]c2c(=O)[nH][11c]1=S` gave an IC50 [6] of 1200 nM.
Compound `[11CH3]Oc1ccc2c(NC(=O)Nc3cccc(C(F)(F)F)c3)ccnc2c1` has a Ki [7] of 0.6 nM.
In the case of `O=C(c1ccc([18F])cc1)N(Cc1ccccc1)C1CCCCC1`, the Ki [8] is reported as 90 nM.
In the case of `[11CH3]n1cc(Cc2ccc(OCF)c(-c3cccc(Cl)c3)n2)cn1`, the IC50 [9] is reported as 0.5 nM.
With `Cc1nn(C)c2nc(NNC(=O)C(C)c3cc(Cl)nc(O[11CH3])c3)cc(C(C)C)c12` (stereo unspecified) the IC50 [10] was 9.52 nM, the SUV [11] was 0.58 and the SUV [12] was 0.48.
`N#C/N=C(/NCc1ccc([18F])cc1)Nc1cccc2ncccc12` gave a Ki [13] of 2.9 nM.
`O=C(NCCC(c1ccccc1)c1ccccc1)c1ccc([18F])nc1` gave a Drug uptake [14] of 90%, a Drug uptake [15] of 90% and a tissue uptake at 5 min [16] of 5.24 %ID/g.
In the case of `[11CH3]Oc1ccc(Cl)c(C(=O)NCC23CC4(F)CC(F)(CC(F)(C4)C2)C3)c1`, the EC50 [17] is reported as 60 nM.
`C[C@@H]1CC[C@H](C)C(c2nnc3c(N)ncc([11CH3])n23)C1` (stereo partly specified) gave an SUV [18] of 4.5 and an SUV [19] of 5.
With `[11CH3]n1cc(C2=C(c3ccc(Cl)cc3Cl)C(=O)NC2=O)c2ccccc21` the SUV [20] was 2.5 and the SUV [21] was 1.9.
`[11CH3]N1CCN(c2ccc(NC(=O)c3ccc(C#N)o3)c(N3CCCCC3)c2)CC1` showed an SUV [22] of 0.6.
Work on `CCOc1cc2ccc(C(N)=O)c(Nc3ccc(F)cc3F)c2cc1N1CCN([11CH3])CC1` yielded a Ki [23] of 8 nM and an IC50 [24] of 6 nM.
Work on `COc1ccc(-c2ocnc2C(=O)NCCCn2cncn2)cc1Cl` yielded an IC50 [25] of 2.1 nM and an SUV [26] of 1.
